Source: ChEMBL document CHEMBL2434936, “Bicyclic and tricyclic heterocycle derivatives as histamine H3 receptor antagonists for the treatment of obesity” (Bioorg Med Chem Lett, 2013)
pIC50, pKi: −log10 of the molar value. Activity calls are given as the source filed them. The rule behind the calls is not given here.

What was measured:
[1] = species on record: Mus musculus; experiment: Ex vivo receptor occupancy of histamine H3 receptor in mouse brain after 72 hrs by time-course method; format: functional, organism-based
[2] = system: Mus musculus; experiment: Antiobesity activity in diet-induced obesity mouse model assessed as reduction in body weight at 10 mg/kg, po after 4 days relative to vehicle-treated control; format: functional; settings: 96 h
[3] = system: Mus musculus; experiment: Antiobesity activity in diet-induced obesity mouse model assessed as reduction in body weight at 3 mg/kg, po after 4 days relative to vehicle-treated control; format: functional; settings: 96 h
[4] = system: Mus musculus; experiment: Antiobesity activity in diet-induced obesity mouse model assessed as reduction in body weight at 1 mg/kg, po after 4 days relative to vehicle-treated control; format: functional; settings: 96 h
[5] = Drug uptake in rat brain at 100 mg/kg, po after 4 hrs by Irwin test; format: ADME, organism-based; design: dose 100 mg/kg, route oral; settings: read-out: Drug uptake
[6] = Drug uptake in rat brain at 300 mg/kg, po after 4 hrs by Irwin test; format: ADME, organism-based; design: dose 300 mg/kg, route oral; settings: read-out: Drug uptake
[7] = Plasma concentration in rat at 300 mg/kg, po after 4 hrs by Irwin test; format: ADME, organism-based; design: dose 300 mg/kg, route oral
[8] = system: Rattus norvegicus; experiment: Toxicity in rat assessed as behavioral change at 100 to 300 mg/kg, po by Irwin test; format: organism-based; design: dose 100-300 mg/kg, route oral; settings: in vivo
[9] = Plasma concentration in rat at 100 mg/kg, po after 4 hrs by Irwin test; format: ADME, organism-based; design: dose 100 mg/kg, route oral
[10] = target: Cytochrome P450 2C9 (Homo sapiens, UniProt P11712); experiment: Inhibition of CYP2C9 in human liver microsomes; format: ADME, Microsome
Cytochrome P450 2C9, sequence (P11712 whole entry): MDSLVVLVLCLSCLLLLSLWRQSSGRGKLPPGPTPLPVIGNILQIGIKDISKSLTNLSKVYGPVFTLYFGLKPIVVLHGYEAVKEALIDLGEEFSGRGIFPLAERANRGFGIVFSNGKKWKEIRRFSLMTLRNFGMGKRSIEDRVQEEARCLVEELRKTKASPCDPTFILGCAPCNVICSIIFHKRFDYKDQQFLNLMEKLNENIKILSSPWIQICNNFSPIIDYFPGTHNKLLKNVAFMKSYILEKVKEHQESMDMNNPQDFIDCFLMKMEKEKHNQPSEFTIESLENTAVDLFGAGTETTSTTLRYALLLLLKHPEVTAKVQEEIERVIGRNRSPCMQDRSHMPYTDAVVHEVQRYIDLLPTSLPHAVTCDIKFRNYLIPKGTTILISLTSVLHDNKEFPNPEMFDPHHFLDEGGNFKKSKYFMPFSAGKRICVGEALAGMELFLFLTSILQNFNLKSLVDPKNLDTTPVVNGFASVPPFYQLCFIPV

[11] = target: hERG (KCNH2) (Homo sapiens, UniProt Q12809); experiment: Inhibition of human ERG channel at 5 ug/ml after 30 mins by rubidium efflux assay
hERG (KCNH2), sequence (Q12809 whole entry): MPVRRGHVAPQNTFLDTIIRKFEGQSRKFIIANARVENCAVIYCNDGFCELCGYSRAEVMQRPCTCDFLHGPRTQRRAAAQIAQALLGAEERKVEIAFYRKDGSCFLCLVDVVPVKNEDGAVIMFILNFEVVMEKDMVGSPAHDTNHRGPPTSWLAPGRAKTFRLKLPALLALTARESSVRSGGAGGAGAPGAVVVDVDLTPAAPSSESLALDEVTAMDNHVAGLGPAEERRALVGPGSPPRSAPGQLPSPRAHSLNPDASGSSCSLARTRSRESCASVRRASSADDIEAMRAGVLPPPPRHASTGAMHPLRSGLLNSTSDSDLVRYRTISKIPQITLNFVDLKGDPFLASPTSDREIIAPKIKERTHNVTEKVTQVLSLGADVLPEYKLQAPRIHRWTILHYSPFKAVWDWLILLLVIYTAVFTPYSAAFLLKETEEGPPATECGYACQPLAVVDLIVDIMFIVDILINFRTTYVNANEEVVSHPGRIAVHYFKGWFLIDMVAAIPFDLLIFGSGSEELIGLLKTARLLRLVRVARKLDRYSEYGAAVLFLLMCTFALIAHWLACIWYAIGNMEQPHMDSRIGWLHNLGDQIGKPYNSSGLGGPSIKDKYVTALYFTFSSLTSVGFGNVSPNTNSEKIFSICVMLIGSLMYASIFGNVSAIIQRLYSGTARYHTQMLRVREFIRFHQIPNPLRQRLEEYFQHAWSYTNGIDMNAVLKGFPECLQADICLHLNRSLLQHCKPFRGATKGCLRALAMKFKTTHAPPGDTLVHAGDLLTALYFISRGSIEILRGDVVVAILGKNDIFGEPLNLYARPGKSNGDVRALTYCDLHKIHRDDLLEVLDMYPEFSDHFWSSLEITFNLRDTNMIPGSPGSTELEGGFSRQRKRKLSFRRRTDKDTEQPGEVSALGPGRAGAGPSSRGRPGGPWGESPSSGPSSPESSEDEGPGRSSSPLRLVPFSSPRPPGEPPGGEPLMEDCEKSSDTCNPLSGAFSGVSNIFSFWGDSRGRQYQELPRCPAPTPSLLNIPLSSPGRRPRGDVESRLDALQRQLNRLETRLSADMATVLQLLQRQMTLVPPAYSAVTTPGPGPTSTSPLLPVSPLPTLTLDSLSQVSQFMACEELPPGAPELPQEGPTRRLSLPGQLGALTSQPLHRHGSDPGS

[12] = target: Cytochrome P450 2D6 (Homo sapiens, UniProt P10635); experiment: Inhibition of CYP2D6 in human liver microsomes; format: ADME, Microsome
Cytochrome P450 2D6, sequence (P10635 whole entry): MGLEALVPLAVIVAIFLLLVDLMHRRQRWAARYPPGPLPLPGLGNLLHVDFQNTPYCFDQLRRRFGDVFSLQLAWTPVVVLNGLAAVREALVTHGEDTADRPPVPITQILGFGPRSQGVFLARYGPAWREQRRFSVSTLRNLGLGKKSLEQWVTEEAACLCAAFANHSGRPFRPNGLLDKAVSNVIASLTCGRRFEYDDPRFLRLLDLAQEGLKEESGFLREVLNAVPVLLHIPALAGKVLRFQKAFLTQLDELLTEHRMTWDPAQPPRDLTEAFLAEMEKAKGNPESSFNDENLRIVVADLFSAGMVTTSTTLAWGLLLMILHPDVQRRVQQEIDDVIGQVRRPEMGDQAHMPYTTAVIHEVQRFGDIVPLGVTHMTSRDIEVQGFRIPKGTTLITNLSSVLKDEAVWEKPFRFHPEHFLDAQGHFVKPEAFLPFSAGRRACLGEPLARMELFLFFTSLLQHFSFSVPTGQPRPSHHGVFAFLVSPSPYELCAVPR

[13] = target: Cytochrome P450 3A4 (Homo sapiens, UniProt P08684); experiment: Inhibition of CYP3A4 in human liver microsomes; format: ADME, Microsome
Cytochrome P450 3A4, sequence (P08684 whole entry): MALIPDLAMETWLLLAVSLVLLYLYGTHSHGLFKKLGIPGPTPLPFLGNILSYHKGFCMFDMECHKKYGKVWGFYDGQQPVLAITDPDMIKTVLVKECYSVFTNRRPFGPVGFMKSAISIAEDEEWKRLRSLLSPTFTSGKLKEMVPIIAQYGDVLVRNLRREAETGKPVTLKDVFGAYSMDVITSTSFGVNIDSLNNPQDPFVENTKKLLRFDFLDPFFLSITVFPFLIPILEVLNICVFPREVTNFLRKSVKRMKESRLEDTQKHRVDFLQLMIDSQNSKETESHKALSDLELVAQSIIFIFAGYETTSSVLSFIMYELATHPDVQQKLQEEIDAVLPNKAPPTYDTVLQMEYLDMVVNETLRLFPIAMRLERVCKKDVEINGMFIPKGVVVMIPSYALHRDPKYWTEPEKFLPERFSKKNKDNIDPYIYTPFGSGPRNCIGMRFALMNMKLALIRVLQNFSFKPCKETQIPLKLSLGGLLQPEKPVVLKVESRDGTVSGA

[14] = system: Mus musculus; experiment: Ex vivo displacement of [3H]N-alpha-methylhistamine from histamine H3 receptor in mouse cortex at 10 mg/kg, po after 4 hrs by topcount scintillation counting analysis; format: functional
[15] = target: Histamine H3 receptor (Mus musculus, UniProt P58406); experiment: Displacement of [3H]N-alpha-methylhistamine from mouse histamine H3 receptor after 30 mins by scintillation counting analysis
Histamine H3 receptor (Mus musculus, UniProt P58406), sequence (P58406 whole entry): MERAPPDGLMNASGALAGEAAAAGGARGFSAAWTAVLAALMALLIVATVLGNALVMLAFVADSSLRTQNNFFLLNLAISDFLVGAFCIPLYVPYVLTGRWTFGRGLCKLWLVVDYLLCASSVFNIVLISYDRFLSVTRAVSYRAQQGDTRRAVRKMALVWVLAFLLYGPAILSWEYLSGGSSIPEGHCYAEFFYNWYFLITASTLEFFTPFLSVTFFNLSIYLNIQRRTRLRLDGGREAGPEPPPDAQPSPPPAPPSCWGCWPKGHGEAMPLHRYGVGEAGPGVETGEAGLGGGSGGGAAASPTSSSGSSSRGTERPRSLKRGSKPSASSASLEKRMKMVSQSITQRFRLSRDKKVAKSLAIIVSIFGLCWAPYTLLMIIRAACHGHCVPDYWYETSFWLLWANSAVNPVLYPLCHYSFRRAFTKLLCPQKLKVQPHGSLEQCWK

[16] = target: Histamine H3 receptor (Homo sapiens, UniProt Q9Y5N1); experiment: Displacement of [3H]N-alpha-methylhistamine from human recombinant histamine H3 receptor expressed in HEK cells after 30 mins by scintillation counting analysis; format: cell-based, HEK293
Histamine H3 receptor (Homo sapiens, UniProt Q9Y5N1), sequence (Q9Y5N1 whole entry): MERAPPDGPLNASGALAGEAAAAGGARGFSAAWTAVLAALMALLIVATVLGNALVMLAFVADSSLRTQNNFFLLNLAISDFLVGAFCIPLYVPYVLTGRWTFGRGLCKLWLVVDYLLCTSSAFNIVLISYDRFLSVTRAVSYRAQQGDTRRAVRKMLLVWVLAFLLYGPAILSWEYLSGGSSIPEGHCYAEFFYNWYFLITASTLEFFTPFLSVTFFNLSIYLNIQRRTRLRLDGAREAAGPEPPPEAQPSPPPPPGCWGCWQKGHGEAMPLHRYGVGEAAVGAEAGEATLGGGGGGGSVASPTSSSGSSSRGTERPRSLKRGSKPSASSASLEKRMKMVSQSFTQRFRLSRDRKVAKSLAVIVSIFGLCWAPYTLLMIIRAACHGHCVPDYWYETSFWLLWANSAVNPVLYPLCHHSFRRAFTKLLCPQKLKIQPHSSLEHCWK

[17] = system: Mus musculus; experiment: Ex vivo displacement of [3H]N-alpha-methylhistamine from histamine H3 receptor in mouse cortex at 3 mg/kg, po after 4 hrs by topcount scintillation counting analysis; format: functional
[18] = system: Mus musculus; experiment: Ex vivo displacement of [3H]N-alpha-methylhistamine from histamine H3 receptor in mouse cortex at 1 mg/kg, po after 4 hrs by topcount scintillation counting analysis; format: functional

SMILES	Activity [1]	inhibition in vivo at 10 mg/kg [2]	inhibition in vivo at 3 mg/kg [3]	inhibition in vivo at 1 mg/kg [4]	concentration at 4 h [5]	concentration at 4 h [6]	concentration at 4 h [7]	Activity [8]	concentration at 4 h [9]	pIC50 [10]	inhibition at 0.5 h, 5 ug/ml [11]	pIC50 [12]	pIC50 [13]	inhibition in vivo at 10 mg/kg [14]	pKi [15]	pKi [16]	inhibition in vivo at 3 mg/kg [17]	inhibition in vivo at 1 mg/kg [18]
Nc1cc(CN2CCC(F)(C(=O)N3CCC(N4CCc5ccccc5CC4)CC3)CC2)ccn1	Active	89%	52%	38%	13700 ng/g	47100 ng/g	4940 ng/mL	Non-toxic	836 ng/mL	< 4.52	-2%	< 4.52	< 4.52	98%	8.52	9.00	–	–
Nc1cc(CN2CCC(F)(C(=O)N3CCC(N4c5ccccc5Sc5ccccc54)CC3)CC2)ccn1	–	–	–	–	–	–	–	–	–	< 4.52	40%	< 4.52	< 4.52	84%	8.15	8.15	–	–
COc1ccc2c(c1)CN(C1CCN(C(=O)C3(F)CCN(Cc4ccnc(N)c4)CC3)CC1)CCC2	–	–	–	–	–	–	–	–	–	< 4.52	7%	< 4.52	< 4.52	77%	8.40	8.70	–	–
Nc1cc(CN2CCC(F)(C(=O)N3CCC(N4Cc5ccccc5-c5ccccc5C4)CC3)CC2)ccn1	–	65%	38%	28%	–	–	–	–	–	< 4.52	27%	6.52	4.74	–	8.40	8.70	91%	–
Nc1cc(CN2CCC(F)(C(=O)N3CCC(N4Cc5ccccc5Cc5ccccc54)CC3)CC2)ccn1	–	–	–	–	–	–	–	–	–	5.40	50%	< 4.52	4.74	–	7.36	8.40	–	–
Nc1cc(CN2CCC(F)(C(=O)N3CCC(N4Cc5cccnc5C4)CC3)CC2)ccn1	–	–	–	–	–	–	–	–	–	–	–	–	–	–	7.82	8.15	–	–
Nc1cc(CN2CCC(F)(C(=O)N3CCC(N4CCCc5ccccc5C4)CC3)CC2)ccn1	–	–	–	–	–	–	–	–	–	< 4.52	25%	< 4.52	< 4.52	78%	6.94	7.44	–	–
Cc1nnc2n1-c1sccc1CN(C1CCN(C(=O)C3(F)CCN(Cc4ccnc(N)c4)CC3)CC1)C2	–	–	–	–	–	–	–	–	–	< 4.52	9%	< 4.52	< 4.52	14%	8.70	9.00	–	–
Nc1cc(CN2CCC(F)(C(=O)N3CCC(N4Cc5ccc(F)cc5C4)CC3)CC2)ccn1	–	–	–	–	–	–	–	–	–	< 4.52	4%	< 4.52	< 4.52	–	8.15	8.70	94%	–
N#Cc1ccc2c(c1)CN(C1CCN(C(=O)C3(F)CCN(Cc4ccnc(N)c4)CC3)CC1)CC2	–	–	–	–	–	–	–	–	–	< 4.52	11%	< 4.52	< 4.52	–	8.70	8.70	–	52%
COc1ccc2c(c1)CCCN(C1CCN(C(=O)C3(F)CCN(Cc4ccnc(N)c4)CC3)CC1)C2	–	–	–	–	–	–	–	–	–	< 4.52	12%	< 4.52	< 4.52	74%	8.52	9.00	–	–
Nc1cc(CN2CCC(F)(C(=O)N3CCC(N4c5ccccc5Sc5cccnc54)CC3)CC2)ccn1	–	–	–	–	–	–	–	–	–	–	54%	–	–	89%	7.59	8.15	–	–
Nc1cc(CN2CCC(F)(C(=O)N3CCC(N4CCNc5ccccc5C4)CC3)CC2)ccn1	–	–	–	–	–	–	–	–	–	< 4.52	12%	< 4.52	< 4.52	–	8.52	9.00	22%	–
Nc1cc(CN2CCC(F)(C(=O)N3CCC(N4Cc5ccccc5C4)CC3)CC2)ccn1	–	–	–	–	–	–	–	–	–	< 4.52	-2%	< 4.52	< 4.52	–	8.40	8.70	–	81%
Cn1c2c(c3ccccc31)CCN(C1CCN(C(=O)C3(F)CCN(Cc4ccnc(N)c4)CC3)CC1)CC2	–	–	–	–	–	–	–	–	–	< 4.52	21%	< 4.52	< 4.52	–	7.34	7.82	–	–
Cc1nnc2n1-c1sccc1C(=O)N(C1CCN(C(=O)C3(F)CCN(Cc4ccnc(N)c4)CC3)CC1)C2	–	–	–	–	–	–	–	–	–	< 4.52	6%	< 4.52	< 4.52	0%	7.15	7.57	–	–
Nc1cc(CN2CCC(F)(C(=O)N3CCC(N4CCc5ccccc5C4)CC3)CC2)ccn1	–	–	–	–	–	–	–	–	–	< 4.52	2%	< 4.52	< 4.52	–	8.40	8.70	–	73%
Nc1cc(CN2CCC(F)(C(=O)N3CCC(N4c5ccccc5Sc5ccc(C(F)(F)F)cc54)CC3)CC2)ccn1	–	–	–	–	–	–	–	–	–	–	79%	–	–	25%	7.29	7.96	–	–
